The first experiment addresses T1, human D4.2 receptor (Homo sapiens, UniProt P21917, DEL265-296).
T1 sequence (P21917 with tags, fused parts or gaps DEL265-296): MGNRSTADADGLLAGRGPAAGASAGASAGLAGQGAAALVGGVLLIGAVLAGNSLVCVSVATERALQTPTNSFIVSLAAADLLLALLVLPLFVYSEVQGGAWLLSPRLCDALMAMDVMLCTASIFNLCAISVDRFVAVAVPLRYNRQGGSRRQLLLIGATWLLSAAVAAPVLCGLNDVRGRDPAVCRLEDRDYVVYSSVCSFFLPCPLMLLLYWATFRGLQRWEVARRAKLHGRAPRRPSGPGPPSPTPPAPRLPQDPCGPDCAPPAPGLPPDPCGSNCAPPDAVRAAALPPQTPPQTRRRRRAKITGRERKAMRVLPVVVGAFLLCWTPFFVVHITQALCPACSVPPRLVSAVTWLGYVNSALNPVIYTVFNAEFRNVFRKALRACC
As to the kind of experiment: Dopamine D4 receptor binding experiment ([3H]-spiperone). The settings on record: CHO cell membranes expressing human D4.2 receptor, [3H]-spiperone (0.5 nM), 27°C, 2 hours. The method, then:
As a receptor preparation, Chinese hamster ovary (CHO) cell membranes where human D4.2 receptor was expressed were used.
As [^3H]-labeled ligand, [^3H]-spiperone was used.
Human D4.2 receptor binding test: CHO cell membranes where human D4.2 receptor was expressed, [^3H]-spiperone (0.5 nM) and a test drug were reacted at 27°C for 2 hours in 50 mM Tris-HCl buffer, pH 7.4 containing 5 mM EDTA, 1.5 mM calcium chloride, 5 mM potassium chloride and 120 mM sodium chloride.
After the reaction, the sample was filtered under suction through a glass filter (GF/B), and the radioactivity of the filter paper was determined in a liquid scintillation spectrometer.
The binding of [^3H]-spiperone in the presence of 10 µM haloperidol was assumed to be non-specific binding, and the difference between the total binding and the non-specific binding was assumed to be specific binding.
Turning to `Cc1nc(-c2ccc(F)cc2)c(CCN2CCC(C(=O)c3ccc(Br)cc3)CC2)s1` [Compound K-21], the IC50 was 11.5 nM.
The same measure, in the same setting: next, `Nc1nc(-c2ccc(F)cc2)c(C2CCN(CCCN3C(=O)Cc4cc(F)ccc43)C2)s1` (stereo not drawn) [Compound H-08]: 46.4 nM; `Nc1nc(-c2ccccc2)c(CCN2CCC(C(=O)c3ccc(F)cc3)CC2)s1` [Compound K-10]: 8.7 nM.
For the molecule `Nc1nc(-c2ccc(F)cc2)c(C2CCN(CCCC(c3ccc(F)cc3)c3ccc(F)cc3)C2)s1` (racemic) [Compound B-19], the IC50 came out at 55.9 nM.
The same measure, in the same setting: next, `CNc1nc(-c2ccc(F)cc2)c(C2CCN(CCCC(=O)c3ccc(F)cc3)C2)s1` (racemic) [Compound D-13]: 12.6 nM; `Nc1nc(-c2ccc(F)cc2)c(C2CCN(CCCC(=O)c3ccc(F)cc3)C2)s1` (single isomer, unassigned; (+)) [Compound F-05, (+)-2-amino-4-(4-fluorophenyl)-5-[1-[4-(4-fluorophenyl)-4-oxobutyl]pyrrolidin-3-yl]thiazole]: 6.58 nM; `Nc1nc(-c2ccc(F)cc2)c(C2CCN(CCCC(=O)c3ccc(F)cc3)C2)s1` [Compound D-02, 2-amino-4-(4-fluorophenyl)-5-[1-[4-(4-fluorophenyl)-4-oxobutyl]pyrrolidin-3-yl]thiazole]: 6.58 nM.
Still for that read-out and setting: then `Nc1nc(-c2ccc(F)cc2)c(CCN2CCC(C(=O)c3ccccc3)CC2)s1` [Compound K-09], with 42.3 nM.
`Cc1nc(-c2ccc(F)cc2)c(CCN2CCC(C(=O)c3ccc(Cl)cc3)CC2)s1` [Compound K-20] gave an IC50 of 5.46 nM.
On the same count and under the same terms, then `Cc1nc(-c2ccc(F)cc2)c(CCN2CCC(C(=O)c3ccc(F)cc3)CC2)s1` [Compound K-19], with 8.7 nM; and `Nc1nc(-c2ccc(F)cc2)c(C2CCN(CCCc3noc4cc(F)ccc34)C2)s1` (stereo not drawn) [Compound E-02, 2-amino-4-(4-fluorophenyl)-5-[1-[3-(6-fluoro-1,2-benzisoxazol-3-yl)propyl]pyrrolidin-3-yl]thiazole], with 10.5 nM.
The molecule `Nc1nc(-c2ccc(F)cc2)c(CCN2CCC(C(=O)c3ccc(Br)cc3)CC2)s1` [Compound K-15] showed an IC50 of 35.1 nM.
On the same count and under the same terms, next, `Nc1nc(-c2ccc(F)cc2)c(CCN2CCC(C(=O)c3ccc(Cl)cc3)CC2)s1` [Compound K-08]: 29.2 nM; `Cc1nc(-c2ccc(F)cc2)c(CCN2CCC(C(=O)c3ccccc3)CC2)s1` [Compound K-24]: 5.99 nM; `Cc1nc(-c2ccc(F)cc2)c(C2CCN(CCCC(=O)c3ccc(F)cc3)C2)s1` (racemic) [Compound D-15]: 4.13 nM.
The molecule `Cc1ccc(-c2nc(C)sc2CCN2CCC(C(=O)c3ccc(F)cc3)CC2)cc1` [Compound K-29] displayed an IC50 of 2.36 nM.
The same measure, in the same setting: next, `Nc1nc(-c2ccc(F)cc2)c(C2CCN(CCC=Cc3ccc(F)cc3)C2)s1` (stereo not drawn) [Compound C-02]: 81.1 nM; `Nc1nc(-c2ccc(F)cc2)c(C2CCN(CCCCc3noc4cc(F)ccc34)C2)s1` (stereo not drawn) [Compound E-06]: 97.7 nM.
For the molecule `Nc1nc(-c2ccc(F)cc2)c(C2CCN(CCCc3nsc4ccccc34)C2)s1` (stereo not drawn) [Compound E-10], the IC50 is 13.9 nM.
`Cc1ccc(C(=O)C2CCN(CCc3sc(C)nc3-c3ccc(F)cc3)CC2)cc1` [Compound K-25] registered an IC50 of 5.46 nM.
`Nc1nc(-c2cccc(F)c2)c(C2CCN(CCCC(=O)c3ccc(F)cc3)C2)s1` (racemic) [Compound D-09]: the IC50 was found to be 32 nM.
Consider `Nc1nc(-c2ccc(F)cc2)c(C2CCN(CCCC(=O)c3ccccc3)C2)s1` (racemic) [Compound D-06], for which the IC50 amounted to 38.5 nM.
Same read-out and setting: then `Cc1nc(-c2ccc(F)cc2)c(CCN2CCC(C(=O)c3ccc(F)cc3F)CC2)s1` [Compound K-23], with 11.5 nM; and `Nc1nc(-c2ccc(F)cc2)c(C2CCN(CCC=C(c3ccc(F)cc3)c3ccc(F)cc3)C2)s1` (racemic) [Compound C-03], with 29.2 nM.
As for `Cc1nc(-c2ccc(Cl)cc2)c(CCN2CCC(C(=O)c3ccc(F)cc3)CC2)s1` [Compound K-26], the IC50 turned out to be 4.53 nM.
`Nc1nc(-c2ccc(F)cc2)c(C2CCN(CCCc3nsc4cc(F)ccc34)C2)s1` (stereo not drawn) [Compound E-11, 2-amino-4-(4-fluorophenyl)-5-[1-[3-(6-fluoro-1,2-benzisothiazol-3-yl)propyl]pyrrolidin-3-yl]thiazole] yielded an IC50 of 7.22 nM.

Still in this experiment, the particulars now being: inhibition of [3H]-spiperone binding, human D4.2 receptor.
In turn, `O=C(c1ccc(F)cc1)C1CCN(CCc2sc(-c3ccccc3)nc2-c2ccc(F)cc2)CC1` [Compound K-35] gave an IC50 of 32 nM.
Same read-out and setting: next, `Nc1nc(-c2ccc(F)cc2)c(CCN2CCC(=Cc3ccc(F)cc3)CC2)s1` [Compound L-01]: 2.85 nM.
`Nc1nc(-c2ccc(F)cc2)c(CCCN2CCC(=Cc3ccc(F)cc3)CC2)s1` [Compound L-02] showed an IC50 of 38.5 nM.
As for `Nc1nc(-c2ccccc2)c(CCN2CCC(=Cc3ccc(F)cc3)CC2)s1` [Compound L-07], the 50% inhibitory concentration (IC50) amounted to 22.1 nM.
On the same count and under the same terms, next, `Cc1ccc(-c2nc(N)sc2CCN2CCC(=Cc3ccc(F)cc3)CC2)cc1` [Compound L-06]: 4.13 nM.
On the same count and under the same terms, next, `Nc1nc(-c2ccc(Cl)cc2)c(CCN2CCC(=Cc3ccc(F)cc3)CC2)s1` [Compound L-03]: 22.1 nM; `COc1ccc(-c2nc(C)sc2CCN2CCC(C(=O)c3ccc(F)cc3)CC2)cc1Br` [Compound K-31]: 0.705 nM; `Cc1nc(-c2ccc(F)cc2)c(CCN2CCC(=Cc3ccccc3F)CC2)s1` [Compound L-28]: 5.99 nM.
In turn, `CC(=C1CCN(CCc2sc(N)nc2-c2ccc(F)cc2)CC1)c1ccc(F)cc1` [Compound L-15] came in with an IC50 of 7.92 nM.
Same read-out and setting: then `Cc1nc(-c2ccccc2)c(CCN2CCC(=Cc3ccc(F)cc3)CC2)s1` [Compound L-23], with 3.13 nM; and `Nc1nc(-c2ccc(F)cc2)c(CCN2CCC(=Cc3ccc(Cl)cc3)CC2)s1` [Compound L-08], with 73.9 nM; and `COc1ccc(C=C2CCN(CCc3sc(N)nc3-c3ccc(F)cc3)CC2)cc1` [Compound L-10], with 29.2 nM.
Molecule `Cc1nc(-c2ccc(F)cc2)c(CCN2CCC(=Cc3ccc(Br)cc3)CC2)s1` [Compound L-25] displayed an IC50 of 29.2 nM.
Regarding `CNc1nc(-c2ccc(F)cc2)c(CCN2CCC(C(=O)c3ccc(F)cc3)CC2)s1` [Compound K-36], the IC50 worked out at 3.43 nM.
Molecule `Cc1ccc(-c2nc(C)sc2CCN2CCC(=Cc3ccc(F)cc3)CC2)cc1` [Compound L-21] yielded an IC50 of 2.6 nM.
The molecule `Nc1nc(-c2ccc(Br)cc2)c(CCN2CCC(=Cc3ccc(F)cc3)CC2)s1` [Compound L-04] yielded an IC50 of 13.9 nM.
As for `Nc1nc(-c2ccc(F)cc2)c(CCN2CCC(=Cc3ccccc3)CC2)s1` [Compound L-14], the IC50 is 3.76 nM.
`CNc1nc(-c2ccc(F)cc2)c(CCN2CCC(=Cc3ccc(F)cc3)CC2)s1` [Compound L-35] displayed an IC50 of 2.15 nM.
`Fc1ccc(C=C2CCN(CCc3scnc3-c3ccc(F)cc3)CC2)cc1` [Compound L-32] yielded an IC50 of 6.58 nM.
In turn, `Cc1nc(-c2ccc(F)cc2)c(CCN2CCC(=Cc3ccccc3)CC2)s1` [Compound L-30] came in with an IC50 of 2.6 nM.
With `Cc1nc(-c2ccc(F)cc2)c(CCN2CCC(=Cc3cccc(F)c3)CC2)s1` [Compound L-27], the IC50 was found to be 1.96 nM.
Consider `COc1ccc(-c2nc(C)sc2CCN2CCC(=Cc3ccc(F)cc3)CC2)cc1` [Compound L-20], for which the 50% inhibitory concentration (IC50) came to 7.22 nM.

These data come from EP0816362A1, “THIAZOLE DERIVATIVES” (TAISHO PHARMACEUTICAL CO. LTD, priority 1995, dated 1996).
